Assay results published in patent publication USRE47689E1, “Compounds for treating spinal muscular atrophy” (PTC Therapeutics, Inc., priority 2011, dated 2019).
Like-named read-outs stand apart in the source and are kept apart here.

Legend:
Smn protein = Smn protein assay in cultured cells (SMN HTRF); format: cell-based, human; conditions: 48 hours; for EC1.5x (concentration giving 1.5-fold Smn protein increase): SMA Type 1 patient fibroblast cells (GM03813), 7-point concentration curve, SMN HTRF, concentration producing 1.5 times Smn protein vs DMSO vehicle control, read-out: EC1.5x for Smn protein expression; for maximum fold (Fold) increase of Smn protein: SMA patient fibroblast cells, 7-point concentration data, fold increase relative to vehicle control (SMN HTRF)
In short: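 Lysates in RIPA with protease inhibitors are incubated overnight at room temperature with HTRF anti-SMN antibodies. EC1.5x is derived from fold increase in ΔF over vehicle.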

[1] = system: SMN2 minigene (full length SMN2 minigene mRNA containing SMN2 exon 7); experiment: SMN2 minigene mRNA splicing RT-qPCR assay in cultured cells; format: cell-based, human; conditions: Homo sapiens, HEK293-H, read-out: EC1.5x for production of full length SMN2 mRNA
In short: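 Read-out: full-length (exon 7-included) SMN2 minigene mRNA by multiplex RT-qPCR with GAPDH, efficiency-corrected (1+E)^−Ct, GAPDH-normalized and divided by vehicle. Stably transfected HEK293H cells, 24 h compound exposure, duplicates per concentration. Value is EC1.5x, reported as star ranges.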

[2] = HEK293H cells stably transfected with SMN2-A minigene, 24 hours, 7-point concentration curve, 1.5-fold relative to vehicle-treated cells

| SMILES | melting point [°C] | EC1.5x (concentration giving 1.5-fold Smn protein increase) (Smn protein) [nM] | maximum fold (Fold) increase of Smn protein (Smn protein) | EC (1.5-fold) [1, 2] [µM] | EC (1.5-fold) ([1]; 24 h) [µM] |
| --- | --- | --- | --- | --- | --- |
| C[C@@H]1CN(c2ccc3cc(-c4cn5cccc(F)c5n4)c(=O)oc3c2)C[C@H](C)N1 [Compound 338, 7-[(3R,5S)-3,5-dimethylpiperazin-1-yl]-3-(8-fluoroimidazo[1,2-a]pyridin-2-yl)-2H-chromen-2-one] | 176 to 180 | 3000 to 10000 | ** (fold increase between >1.2 and ≤1.35) | 0.1 to 0.3 | – |
| Cc1ccn2cc(-c3cc4ccc(N[C@H]5CCNC5)cc4oc3=O)nc2c1 [Compound 581, 3-(7-methylimidazo[1,2-a]pyridin-2-yl)-7-[(3S)-pyrrolidin-3-ylamino]-2H-chromen-2-one] | 243 to 253 | – | * (maximum fold increase of ≤1.2) | 0.3 to 1 | – |
| C[C@@H]1CN(c2ccc3cc(-c4cnc5ccccc5n4)c(=O)oc3c2)C[C@H](C)N1 [Compound 461, 7-[(3R,5S)-3,5-dimethylpiperazin-1-yl]-3-(quinoxalin-2-yl)-2H-chromen-2-one] | 234 to 236 | – | * (maximum fold increase of ≤1.2) | 3 to 30 | – |
| COc1cccc(-c2cc3c(F)cc(N4CCN[C@@H](C)C4)cc3oc2=O)n1 [Compound 469, 5-fluoro-3-(6-methoxypyridin-2-yl)-7-[(3S)-3-methylpiperazin-1-yl]-2H-chromen-2-one] | 199 to 201 | – | ** (fold increase between >1.2 and ≤1.35) | 0.1 to 0.3 | – |
| CC(C)NCc1ccc2cc(-c3nc4c(C(F)(F)F)cccc4s3)c(=O)oc2c1 [Compound 9, 7-[(propan-2-ylamino)methyl]-3-[4-(trifluoromethyl)-1,3-benzothiazol-2-yl]-2H-chromen-2-one] | 191 to 196 | – | * (maximum fold increase of ≤1.2) | 3 to 30 | – |
| Cc1ccn2cc(-c3cc4ccc(NCCCN(C)C)cc4oc3=O)nc2c1 [Compound 475, 7-{[3-(dimethylamino)propyl]amino}-3-(7-methylimidazo[1,2-a]pyridin-2-yl)-2H-chromen-2-one] | 165 to 170 | – | * (maximum fold increase of ≤1.2) | 3 to 30 | – |
| CC(C)N1CCN(c2ccc3cc(-c4nc5ccccc5s4)c(=O)oc3c2)CC1 [Compound 15, 3-(1,3-benzothiazol-2-yl)-7-[4-(propan-2-yl)piperazin-1-yl]-2H-chromen-2-one] | 238 to 246 | – | * (maximum fold increase of ≤1.2) | 3 to 30 | – |
| CN1CCN(c2ccc3cc(-c4cn5cc(C6CC6)cc(F)c5n4)c(=O)oc3c2)CC1 [Compound 504, 3-(6-cyclopropyl-8-fluoroimidazo[1,2-a]pyridin-2-yl)-7-(4-methylpiperazin-1-yl)-2H-chromen-2-one] | 277 to 287 | – | * (maximum fold increase of ≤1.2) | 1 to 3 | – |
| Cc1ccc2nc(-c3cc4ccc(N(C)C5CCN(C)CC5)cc4oc3=O)cn2c1 [Compound 282, 3-(6-methylimidazo[1,2-a]pyridin-2-yl)-7-[methyl(1-methylpiperidin-4-yl)amino]-2H-chromen-2-one] | 181 to 184 | – | * (maximum fold increase of ≤1.2) | – | 1 to 3 |
| CN1CCN(c2ccc3cc(-c4cn5cccnc5n4)c(=O)oc3c2)CC1 [Compound 87, 3-(imidazo[1,2-a]pyrimidin-2-yl)-7-(4-methylpiperazin-1-yl)-2H-chromen-2-one] | > 310 | 1000 to 3000 | **** (fold increase between >1.5 and ≤1.65) | 0.3 to 1 | – |
| CCCN1CCN(c2ccc3cc(-c4cc5cc(C)ccn5n4)c(=O)oc3c2)CC1 [Compound 308, 3-(5-methylpyrazolo[1,5-a]pyridin-2-yl)-7-(4-propylpiperazin-1-yl)-2H-chromen-2-one] | 228 to 230 | – | ** (fold increase between >1.2 and ≤1.35) | 3 to 30 | – |
| C[C@@H]1CN(c2ccc3cc(-c4cn5ccc(C(F)(F)F)cc5n4)c(=O)oc3c2)CCN1 [Compound 267, 7-[(3R)-3-methylpiperazin-1-yl]-3-[7-(trifluoromethyl)imidazo[1,2-a]pyridin-2-yl]-2H-chromen-2-one] | 252 to 260 | – | * (maximum fold increase of ≤1.2) | 1 to 3 | – |
| Cc1cn2cc(-c3cc4ccc(N5CC[C@H](N(C)C)C5)cc4oc3=O)nc2c(C)n1 [Compound 691, 7-[(3S)-3-(dimethylamino)pyrrolidin-1-yl]-3-(6,8-dimethylimidazo[1,2-a]pyrazin-2-yl)-2H-chromen-2-one] | 244 to 246 | < 300 | **** (fold increase between >1.5 and ≤1.65) | < 0.1 | – |
| Cc1cn2cc(-c3cc4ccc(N(C)[C@H]5CCN(C)C5)cc4oc3=O)nc2c(C)n1 [Compound 656, 3-(6,8-dimethylimidazo[1,2-a]pyrazin-2-yl)-7-{methyl[(3S)-1-methylpyrrolidin-3-yl]amino}-2H-chromen-2-one] | 178 to 184 | < 300 | ***** (fold increase >1.65) | < 0.1 | – |

Now from value to compound, other results behind:

| melting point [°C] | SMILES | EC1.5x (concentration giving 1.5-fold Smn protein increase) (Smn protein) [nM] | maximum fold (Fold) increase of Smn protein (Smn protein) | EC (1.5-fold) [1, 2] [µM] | EC (1.5-fold) ([1]; 24 h) [µM] |
| --- | --- | --- | --- | --- | --- |
| 284 to 286 | Cc1cn2cc(-c3cc4ccc(N5CC(N6CCCCC6)C5)cc4oc3=O)nc2c(C)n1 [Compound 951, 3-(6,8-dimethylimidazo[1,2-a]pyrazin-2-yl)-7-[3-(piperidin-1-yl)azetidin-1-yl]-2H-chromen-2-one] | 1000 to 3000 | **** (fold increase between >1.5 and ≤1.65) | < 0.1 | – |
| 196 to 202 | Cc1cn2cc(-c3cc4ccc(O[C@@H]5CCN(C(C)CO)C5)cc4oc3=O)nc2c(C)n1 (stereo partly drawn) [Compound 893, 3-(6,8-dimethylimidazo[1,2-a]pyrazin-2-yl)-7-{[(3R)-1-(1-hydroxypropan-2-yl)pyrrolidin-3-yl]oxy}-2H-chromen-2-one] | < 300 | ***** (fold increase >1.65) | < 0.1 | – |
| 181 to 184 | Cc1cn2cc(-c3cc4ccc(CCCNC(C)CO)cc4oc3=O)nc2c(C)n1 (stereo not shown) [Compound 881, 3-(6,8-dimethylimidazo[1,2-a]pyrazin-2-yl)-7-{3-[(1-hydroxypropan-2-yl)amino]propyl}-2H-chromen-2-one] | < 300 | **** (fold increase between >1.5 and ≤1.65) | < 0.1 | – |
| 192 to 202 | Cc1cn2cc(-c3cc4ccc(N(C)[C@H]5CCNC5)cc4oc3=O)nc2c(C)n1 [Cpd 620, 3-(6,8-dimethylimidazo[1,2-a]pyrazin-2-yl)-7-{methyl[(3S)-pyrrolidin-3-yl]amino}-2H-chromen-2-one] | < 300 | **** (fold increase between >1.5 and ≤1.65) | < 0.1 | – |
| 288 to 290 | Cc1nn2cc(-c3cc4ccc(N5CCNCC5)cc4oc3=O)nc2s1 [Cpd 441, 3-(2-methylimidazo[2,1-b][1,3,4]thiadiazol-6-yl)-7-(piperazin-1-yl)-2H-chromen-2-one] | – | *** (fold increase between >1.35 and ≤1.5) | < 0.1 | – |
| 206 to 210 | Cc1cn2cc(-c3cc4ccc(OC5CCN(C(CO)CO)CC5)cc4oc3=O)nc2c(C)n1 [Compound 915, 7-{[1-(1,3-dihydroxypropan-2-yl)piperidin-4-yl]oxy}-3-(6,8-dimethylimidazo[1,2-a]pyrazin-2-yl)-2H-chromen-2-one] | 300 to 1000 | **** (fold increase between >1.5 and ≤1.65) | < 0.1 | – |
| 217 to 220 | CN1CCCN(c2ccc3cc(-c4nc5ccccc5s4)c(=O)oc3c2)CC1 [Cpd 145, 3-(1,3-benzothiazol-2-yl)-7-(4-methyl-1,4-diazepan-1-yl)-2H-chromen-2-one] | – | ** (fold increase between >1.2 and ≤1.35) | 0.1 to 0.3 | – |
| 208 to 212 | CCCN1CCC(c2ccc3cc(-c4cn5cc(C)nc(C)c5n4)c(=O)oc3c2)CC1 [Compound 842, 3-(6,8-dimethylimidazo[1,2-a]pyrazin-2-yl)-7-(1-propylpiperidin-4-yl)-2H-chromen-2-one] | < 300 | ***** (fold increase >1.65) | < 0.1 | – |
| 195 to 198 | Cc1ccc2oc(-c3cc4ccc(N5CCN6CCC[C@@H]6C5)cc4oc3=O)cc2n1 [Compound 721, 7-[(8aR)-hexahydropyrrolo[1,2-a]pyrazin-2(1H)-yl]-3-(5-methylfuro[3,2-b]pyridin-2-yl)-2H-chromen-2-one] | – | * (maximum fold increase of ≤1.2) | 1 to 3 | – |
